Values after ≈ are worked out from the molar mass of the structure shown. Values belong to the molecule of their own block, whether it stands above or below them.
Key:
Assay in all cases: ≥ marks a high value that may be exact or a test limit, other limits are often not marked, values filed in µg/mL are converted to µM
Enterococcus faecalis = tested on: Enterococcus faecalis
Acinetobacter baumannii = tested on: Acinetobacter baumannii
Enterococcus gallinarum = tested on: Enterococcus gallinarum
Pseudomonas aeruginosa = tested on: Pseudomonas aeruginosa
Raoultella terrigena = tested on: Raoultella terrigena
Bacillus megaterium Bm11 = tested on: Bacillus megaterium Bm11
[1] = tested on: Candida albicans ATCC 10231
[2] = tested on: Escherichia coli ATCC 25922
[3] = tested on: Staphylococcus aureus Cowan 1
[4] = tested on: Yersinia pseudotuberculosis YPIII
Staphylococcus capitis 1 = tested on: Staphylococcus capitis 1
[5] = tested on: Staphylococcus aureus SG511
[6] = tested on: Staphylococcus haemolyticus
[7] = tested on: Bacillus megaterium CIP 6620
[8] = tested on: Vibrio nigripulchritudo CIP 103195
Escherichia coli SBS 363 = tested on: Escherichia coli SBS 363
[9] = tested on: Micrococcus luteus CIP 5345
[10] = tested on: Corynebacterium stationis CIP 101282
[11] = tested on: Vibrio splendidus CIP 107715
[12] = tested on: Staphylococcus aureus CIP 103428
[13] = tested on: Microbacterium maritypicum CIP 105733T
[14] = tested on: Acinetobacter baumannii NM35
[15] = tested on: Stenotrophomonas maltophilia B32/1
[16] = tested on: Staphylococcus aureus 145/08
[17] = tested on: Escherichia coli ATCC 25726
[18] = tested on: Staphylococcus aureus 127/08
[19] = tested on: Enterococcus faecalis ATCC 29212
[20] = tested on: Pseudomonas aeruginosa ATCC 27853
[21] = tested on: Staphylococcus epidermidis RP62A/1
[22] = tested on: Staphylococcus epidermidis T6/19
[23] = tested on: Klebsiella pneumoniae ATCC 700603
[24] = tested on: Candida albicans ATCC 90028
[25] = tested on: Staphylococcus aureus ATCC 25923
[26] = tested on: Stenotrophomonas maltophilia B5/5
[27] = tested on: Acinetobacter baumannii NM8
[28] = tested on: Staphylococcus epidermidis RP62A
[29] = tested on: Stenotrophomonas maltophilia B32/4
[30] = tested on: Acinetobacter baumannii NM124
[31] = tested on: Trichosporon beigelii KCTC 7707
[32] = tested on: Pseudomonas aeruginosa KCTC 1637
[33] = tested on: Listeria monocytogenes KCTC 3710
[34] = tested on: Candida albicans CCARM 14007
[35] = tested on: Bacillus subtilis KCTC 1918
[36] = tested on: Staphylococcus aureus KCTC 1621
[37] = tested on: Salmonella typhimurium KCTC 1926
[38] = tested on: Candida albicans CCARM 14001
[39] = tested on: Escherichia coli CCARM 1229
[40] = tested on: Escherichia coli CCARM 1238
[41] = tested on: Candida albicans KCTC 7270
[42] = tested on: Escherichia coli KCTC 1682
[43] = tested on: Candida albicans CCARM 14020

SMILES: CSCC[C@H](NC(=O)[C@H](C)NC(C)=O)C(=O)N[C@H](C(=O)N[C@@H](CO)C(=O)N[C@@H](CO)C(=O)O)C(C)C [AMVSS]
- MIC (Enterococcus faecalis): ≥ 46.2 µM
- MIC (Acinetobacter baumannii): 23.1 µM (≈ 12.4 µg/mL)
- MIC (Enterococcus gallinarum): 23.1 µM (≈ 12.4 µg/mL)
- MIC (Pseudomonas aeruginosa): 23.1 µM (≈ 12.4 µg/mL)
- MIC (Raoultella terrigena): 23.1 µM (≈ 12.4 µg/mL)

SMILES: CC[C@H](C)[C@H](NC(=O)CNC(=O)[C@H](CO)NC(=O)[C@H](C)NC(=O)[C@@H](NC(=O)[C@H](CCCN=C(N)N)NC(=O)CNC(=O)[C@@H](NC(=O)[C@H](CC(C)C)NC(=O)[C@@H]1CCCN1C(=O)[C@H](CC(C)C)NC(=O)[C@@H](N)Cc1ccccc1)[C@@H](C)CC)C(C)C)C(=O)N[C@@H](CC(C)C)C(N)=O [FLPLIGRVASGIL]
- MIC (Bacillus megaterium Bm11): ≥ 40 µM
- MIC [1]: > 40 µM
- MIC [2]: > 40 µM
- MIC [3]: ≥ 40 µM
- MIC [4]: ≥ 40 µM
- MIC (Staphylococcus capitis 1): ≥ 40 µM

SMILES: CC[C@H](C)[C@H](NC(=O)[C@@H]1CCCN1C(=O)CN)C(=O)N[C@@H](CCCN=C(N)N)C(=O)N[C@@H](CCCN=C(N)N)C(=O)N1CCC[C@H]1C(=O)N[C@@H](CCCCN)C(=O)N1CCC[C@H]1C(=O)N[C@@H](CCCN=C(N)N)C(=O)N1CCC[C@H]1C(=O)N[C@@H](CCCN=C(N)N)C(=O)N1CCC[C@H]1C(=O)N[C@@H](CCCN=C(N)N)C(=O)N1CCC[C@H]1C(=O)N[C@@H](CCC(=O)O)C(=O)O [GPIRRPKPRPRPRPE]
- MIC [5]: 20 µM (≈ 36.2 µg/mL)
- MIC [6]: 20 µM (≈ 36.2 µg/mL)
- MIC [7]: 20 µM (≈ 36.2 µg/mL)
- MIC [8]: ≥ 40 µM
- MIC (Escherichia coli SBS 363): ≥ 80 µM
- MIC [9]: ≥ 80 µM
- MIC [10]: 20 µM (≈ 36.2 µg/mL)
- MIC [11]: ≥ 40 µM
- MIC [12]: 20 µM (≈ 36.2 µg/mL)
- MIC [13]: 20 µM (≈ 36.2 µg/mL)

SMILES: CC[C@H](C)[C@H](N)C(=O)N[C@@H](CCCCN)C(=O)N[C@H](C(=O)N1CCC[C@H]1C(=O)N[C@@H](CO)C(=O)N[C@@H](Cc1ccccc1)C(=O)N[C@@H](Cc1ccccc1)C(=O)N[C@@H](CCCN=C(N)N)C(=O)N[C@@H](CC(N)=O)C(=O)N[C@H](C(=O)N[C@@H](CC(C)C)C(=O)N[C@@H](CCCCN)C(=O)N[C@@H](CCCCN)C(=O)N[C@H](C(=O)NCC(=O)N[C@@H](CCCCN)C(=O)N[C@@H](CCC(=O)O)C(=O)N[C@@H](C)C(=O)N[C@H](C(=O)N[C@@H](CO)C(=O)N[C@@H](CC(C)C)C(=O)N[C@H](C(=O)N[C@@H](C)C(=O)NCC(=O)N[C@@H](C)C(=O)N[C@@H](CC(C)C)C(=O)N[C@@H](CCCCN)C(=O)N[C@@H](CCC(N)=O)C(=O)N[C@@H](CO)C(=O)O)[C@@H](C)CC)C(C)C)C(C)C)[C@@H](C)CC)[C@@H](C)CC [IKIPSFFRNILKKVGKEAVSLIAGALKQS]
- MIC [14]: 5 µM (≈ 15.8 µg/mL)
- MIC [15]: 5 µM (≈ 15.8 µg/mL)
- MIC [16]: 10 µM (≈ 31.6 µg/mL)
- MIC [17]: 10 µM (≈ 31.6 µg/mL)
- MIC [18]: 5 µM (≈ 15.8 µg/mL)
- MIC [19]: 10 µM (≈ 31.6 µg/mL)
- MIC [20]: 20 µM (≈ 63.1 µg/mL)
- MIC [21]: 1.25 µM (≈ 3.95 µg/mL)
- MIC [22]: 2.5 µM (≈ 7.89 µg/mL)
- MIC [23]: 20 µM (≈ 63.1 µg/mL)
- MIC [24]: ≥ 80 µM
- MIC [25]: 7.07 µM (≈ 22.3 µg/mL)
- MIC [26]: 10 µM (≈ 31.6 µg/mL)
- MIC [27]: 10 µM (≈ 31.6 µg/mL)
- MIC [28]: 2.5 µM (≈ 7.89 µg/mL)

Second part, the molecule after the results:

- MIC [15]: ≥ 100 µM
- MIC [17]: ≥ 200 µM
- MIC [18]: ≥ 200 µM
- MIC [29]: ≥ 50 µM
- MIC [25]: > 200 µM
- MIC [27]: ≥ 200 µM
- MIC [30]: ≥ 100 µM
SMILES: CC[C@H](C)[C@@H]1NC(=O)[C@H](CCCCN)NC(=O)[C@@H](NC(=O)[C@H](C)NC(=O)[C@@H](NC(=O)[C@H](CC(C)C)NC(=O)[C@H](CC(=O)O)NC(=O)[C@@H](NC(=O)CNC(=O)[C@H](CC(C)C)NC(=O)[C@H](CCCCN)NC(=O)[C@H](C)NC(=O)[C@H](CC(C)C)NC(=O)[C@H](CC(=O)O)NC(=O)[C@H](CCCCN)NC(=O)CNC(=O)[C@H](CC(C)C)NC(=O)CNC(=O)[C@H](CCCCN)NC(=O)[C@H](CO)NC(=O)[C@H](C)NC(=O)[C@H](Cc2ccccc2)NC(=O)[C@@H](N)CCCCN)C(C)C)C(C)C)CSSC[C@@H](C(=O)O)NC(=O)[C@H](CCC(N)=O)NC(=O)[C@H](CCCCN)NC(=O)[C@H](CO)NC1=O [KFASKGLGKDLAKLGVDLVACKISKQC]

- MIC [31]: 16 µM (≈ 15.4 µg/mL)
- MIC [32]: ≥ 64 µM
- MIC [33]: ≥ 128 µM
- MIC [34]: ≥ 32 µM
- MIC [35]: ≥ 256 µM
- MIC [36]: ≥ 256 µM
- MIC [37]: 16 µM (≈ 15.4 µg/mL)
- MIC [38]: ≥ 32 µM
- MIC [39]: ≥ 256 µM
- MIC [40]: ≥ 256 µM
- MIC [41]: ≥ 32 µM
- MIC [42]: ≥ 256 µM
- MIC [43]: ≥ 32 µM
SMILES: NCCCC[C@H](NC(=O)[C@H](Cc1c[nH]c2ccccc12)NC(=O)[C@H](CCCCN)NC(=O)[C@H](Cc1c[nH]c2ccccc12)NC(=O)[C@H](CCCCN)NC(=O)[C@@H](N)Cc1c[nH]c2ccccc12)C(=O)O [WKWKWK]
